Test system: Cottontail Rabbit Papilloma Virus (CRPV) cutaneous warts
Experiment: Cottontail Rabbit Papilloma Virus (CRPV) model of cutaneous warts: wart surface area after topical gel
Type: in vivo, Hra(NZW)SPF New Zealand White Rabbits
Excerpt: Efficacy of Ingenol-3-angelate (PEP005) Topical Gel in a Cottontail Rabbit Papilloma Virus (CRPV) model of cutaneous warts in Hra(NZW)SPF New Zealand White Rabbits.
Ch 25. In: Zak O, Sande M A, editors. Handbook of animal models of infection. New York: Academic Press; 1999. p. 1039-47). Concentrations of the inoculant were selected empirically based on published information for the CRPV model in which cutaneous papillomas (warts) were induced in rabbits (Christensen N D. Cottontail rabbit papillomavirus (CRPV) model system to test antiviral and immunotherapeutic strategies. Antiviral chemistry & chemotherapy 2005; 16(6):355-62). The percutaneous route was selected because this route has been successfully used to establish cutaneous papilloma (wart) formation in rabbits following inoculation with CRPV DNA.
Ten female Hra:(NZW)SPF New Zealand White (NZW) female rabbits were randomly assigned to four dose groups, three rabbits per dose group in Groups 1 through 3 and one rabbit in Group 4.
Four days before inoculation (DS-4), the backs of the rabbits were shaved over an area encompassing all eight exposure sites using an electric clipper with an appropriate blade. Following clipping, the skin was chemically depilated with Veet® (distributed by Reckitt Benckiser Inc., Parsippany, N.J., USA). The clipped area (approximately 10 cm×20 cm) extended from the shoulders to the hip joints of each rabbit and was approximately 10 cm wide (extending ventrolaterally from the dorsal midline approximately 5 cm on each side). Any re-growth of hair was carefully clipped, as needed throughout the study.
Three days before inoculation, rabbits were anesthetized with isoflourane/oxygen and the exposure sites on each rabbit were tattooed (Aims Black Pigment #242, AIMS Inc, Piscataway, N.J., USA, lot number F0707A, expiration date 30 Jun. 2008) on either side of each inoculation site. Each exposure site was carefully scarified using a scalpel blade (#60) to create a brush burn-like lesion in order to promote wart growth following inoculation. Rabbits were monitored constantly for signs of regular breathing and comfort while anesthetized and until full recovery from anesthesia. […]
Daily observations for development of the warts began during week 4 and continued until the first day of test article or placebo administration. The length and width of each cutaneous wart was recorded from the day of first observation to the completion of the study.
Dose administration of PEP005 Topical Gel or placebo began on DS 50. […] The treatment area of each dosing site was determined from the most recent length and width measurements of each wart (mm^2). […]

C/C=C(/C)C(=O)O[C@H]1C(C)=C[C@]23C(=O)[C@@H](C=C(CO)[C@@H](O)[C@]12O)[C@H]1[C@@H](C[C@H]3C)C1(C)C [PEP005, ingenol-3-angelate]
Average percentage change in wart area relative to Day 50 (0.1% PEP005, 3 day treatment, Days 51-57): 2.1%
Average percentage change in wart area relative to Day 50 (0.1% PEP005, 3 day treatment, Days 56-64): −4.7%
Average percentage change in wart area relative to Day 50 (0.1% PEP005, 5 day treatment, Days 51-57): 17.5%
Average percentage change in wart area relative to Day 50 (0.1% PEP005, 5 day treatment, Days 56-64): 3.9%
